Article PMC10610311, “Eugenol: In Vitro and In Ovo Assessment to Explore Cytotoxic Effects on Osteosarcoma and Oropharyngeal Cancer Cells” (Plants, 2023)

What was measured:
[1] = tested on: SAOS-2 (human osteosarcoma cells); assay: MTT cell viability assay, SAOS-2; type: cell-based; settings: 72 h, read-out: cell viability (normalized to control)
Protocol: (§1) The present study was performed on two human cancer cell lines—SAOS-2 (osteosarcoma cells) and Detroit-562 (oropharynx squamous carcinoma cells), respectively, which were received from ATCC in the form of frozen vials. SAOS-2 cells were cultured in DMEM, while Detroit-562 cells were cultured using EMEM. Both media contained 10% FCS and 1% penicillin (100 U/mL)–streptomycin (100 μg/mL) mixture. Over the course of the experiments, the cells were incubated at 37 °C and 5% CO2.
(§2) A colorimetric approach—the MTT [[…])-2,5-diphenyltetrazolium bromide] assay, was used to determine cell viability. This was accomplished by cultivating the cells in 96-well plates at a density of 1x10^4 cells per well. Upon achieving a confluence of approximately 90%, the cells were stimulated for 72 h with five concentrations of Eug (0.1; 0.25; 0.5; 0.75 and 1 mM). The Eug solutions were prepared by diluting stock solution in culture medium. After this time interval, 10 μL of MTT reagent was added to each well, and the cells were incubated for three hours at 37 °C. To solubilize the MTT formazan crystals, 100 μL of solubilizer were added to each well, and after 30 min, the absorbance was measured at 570 nm using Cytation 5 (BioTek Instruments Inc., Winooski, VT, USA).

[2] = tested on: Detroit-562 (oropharynx squamous carcinoma cells); assay: MTT cell viability assay, Detroit-562; type: cell-based; settings: Homo sapiens, 72 h, read-out: cell viability (normalized to control)
Protocol: as §1, §2

SAOS-2 cells [3] = assay: Cellular morphology evaluation (bright field), SAOS-2; type: cell-based, human; settings: SAOS-2, concentrations higher than 0.1 mM, 72 h
Protocol: (§3) As a means of determining the impact of Eug on the morphology of cells, the microscopic evaluation of SAOS-2 and Detroit-562 cells was carried out after exposure for 72 h. The changes were observed under bright field illumination with the help of the Olympus IX73 inverted microscope (Olympus, Tokyo, Japan), and the processing of the images for the purpose of analysis was carried out by means of CellSens Dimensions v.17 Software (Olympus, Tokyo, Japan).

Detroit-562 cells [4] = assay: Cellular morphology evaluation (bright field), Detroit-562; type: cell-based, human; settings: Detroit-562, Eug 0.1 mM, 72 h, vs control
Protocol: as §3

SAOS-2 cells [5] = assay: DAPI nuclear morphology / apoptotic index, SAOS-2; type: cell-based, human; settings: 72 h
Protocol: (§4) Using immunofluorescence, it was possible to provide further details regarding Eug’s effects on osteosarcoma and oropharynx squamous carcinoma nuclei. The technique was performed for cells stimulated with Eug 0.5 and 1 mM for 72 h. The applied protocol assumed the following stages: (i) culturing the cells in 12-well plates and stimulating them after reaching the desired confluence with Eug 0.5 and 1 mM for 72 h; (ii) washing with PBS and fixing the cells with 4% paraformaldehyde; (iii) permeabilization with Triton X 0.2%; (iv) blocking the permeabilization with a FCS solution in Triton X 0.01%; and (v) adding DAPI for 15 min. The pictures were then taken with Cytation 1 and processed using Gen5™ Micro-plate Data Collection and Analysis Software v. 3.12 (BioTek® Instruments Inc., Winooski, VT, USA). For a quantitative analysis of the Eug impact at the cellular level, the cell apoptosis index (AI) was calculated using the previously described formula [76]: AI=Number of apoptotic cells/Total number of cells×100
(§5) In accordance with the published protocols, the nuclear morphology was evaluated using ImageJ software v.6 [77].

Detroit-562 cells [6] = assay: DAPI nuclear morphology / apoptotic index, Detroit-562; type: cell-based, human; settings: 72 h
Protocol: as §4, §5

[7] = tested on: Bax, Bad, Bcl-2 mRNA in SAOS-2 cells; assay: RT-PCR expression of apoptosis-related genes, SAOS-2; type: cell-based, human; settings: SAOS-2, Eug 0.5 mM, 72 h, normalized to 18S
Protocol: (§6) To investigate the potential cell-death mechanism induced by Eug 0.5 mM in SAOS-2 and Detroit-562 cells, the expression of pro-apoptotic (Bax, Bad) and anti-apoptotic (Bcl-2) markers was evaluated using the real-time reverse transcription–polymerase chain reaction (RT-PCR) technique after 72 h of treatment. RNA extraction was performed using the Quick-RNA Miniprep Kit (Zymo Research, Irvine, CA, USA), and the amount of extracted RNA was measured with the DS-11 spectrophotometer (DeNovix, Wilmington, DE, USA). The cDNA was produced using the Maxima® First Strand cDNA Synthesis Kit, and the RT-qPCR quantification was performed using a Quant Studio 5 real-time PCR system (Thermo Fisher Scientific, Inc., Waltham, MA, USA) and Power SYBR-Green PCR Master Mix (Thermo Fisher Scientific, Inc., Waltham, MA, USA).

[8] = tested on: Bax, Bad, Bcl-2 mRNA in Detroit-562 cells; assay: RT-PCR expression of apoptosis-related genes, Detroit-562; type: cell-based, human; settings: Detroit-562, Eug 0.5 mM, 72 h, normalized to 18S
Protocol: as §6

[9] = tested on: caspases 3/7, 8, and 9 in SAOS-2 cells; assay: Caspase-Glo caspase-3/7, -8, -9 activity, SAOS-2; type: cell-based, human; settings: SAOS-2, Eug 0.5 mM, 72 h
Protocol: (§7) The activity of caspases 3/7, 8, and 9 was determined after the SAOS-2 and Detroit-562 cells’ 72 h treatment with Eug 0.5 mM, using the Caspase-Glo Kit provided by Promega, Madison, WI, USA. The plates were first equilibrated at room temperature for 30 min, then, the Caspase-Glo reagent (100 μL/well) was added. The plates were shaken for 30 s on a plate shaker and maintained at room temperature for another 2 h. Finally, the luminescence was measured on Cytation 5 (BioTek Instruments Inc., Winooski, VT, USA).

[10] = tested on: caspases 3/7, 8, and 9 in Detroit-562 cells; assay: Caspase-Glo caspase-3/7, -8, -9 activity, Detroit-562; type: cell-based, human; settings: Detroit-562, Eug 0.5 mM, 72 h
Protocol: as §7

SAOS-2 cells [11] = assay: RealTime-Glo Annexin V Apoptosis and Necrosis Assay, SAOS-2; type: cell-based, human; settings: SAOS-2, Eug 0.5 mM, 0-72 h
Protocol: (§8) To confirm the apoptotic effect of Eug 0.5 mM in Saos-2 and Detroit-562 cells, the RealTime-Glo™ Annexin V Apoptosis and Necrosis Assay was performed according to the manufacturer’s protocol. In brief, the cells were cultured in solid white bottom 96-well plates (Costar® 3917) and treated with Eug. The prepared 2X Detection Reagent that contained Annexin V NanoBiT™ Substrate, Annexin V-SmBiT, Annexin V-LgBiT, CaCl2, and Necrosis Detection Reagent was added in each well and the plates were shaken for 30 s at 500 rpm. The luminescence and fluorescence (excitation 485 ± 20 nm, and emission 525 ± 30 nm) were recorded at different time points (0, 6, 12, 24, 48, and 72 h post-treatment) using Cytation 5. Background signals (from no-cell wells) that were subtracted from the wells that contained cells.

Detroit-562 cells [12] = assay: RealTime-Glo Annexin V Apoptosis and Necrosis Assay, Detroit-562; type: cell-based, human; settings: Detroit-562, Eug 0.5 mM, 0-72 h
Protocol: as §8

[13] = tested on: chorioallantoic membrane of hen's eggs; assay: Hen's Egg Test - Chorioallantoic Membrane (HET-CAM); type: in vivo, Gallus gallus domesticus; design: key to IS (irritation score): IS = 5×(301−H)/300 + 7×(301−L)/300 + 9×(301−C)/300; tH, time at which hemorrhage was established / tL, time at which vascular lysis was established / tC, time at which intravascular coagulation was established: unit not given here; settings: Eug 1 mM / SDS 1%, monitored 5 min; for IS (irritation score): 600 µL on CAM
Protocol: The irritant and toxic potential of Eug (1 mM) at the vascular level was assessed by performing the HET-CAM assay, as previously described. In brief, several steps were followed: […] (ii) on day 4 after incubation, a perforation was made in each egg to extract 6 to 7 mL of albumen; (iii) on the next day of incubation, a window was cut in the upper part of the eggs to facilitate the visualization of the blood vessels, and was covered using adhesive tape; (iv) on day 10 of incubation, 600 µL of each sample (negative control—H2O, positive control—SDS 1%, and Eug 1 mM) were added to the chorioallantoic membrane; (v) the compounds’ ability to produce hemorrhage (H), vascular lysis (L), and coagulation was monitored for 5 min, taking photos (using the Discovery 8 Stereomicroscope from Zeiss, Göttingen, Germany and the Zeiss Axio CAM 105 color camera) prior to the addition of the samples (T0) and at the end of the 5 min period (T5); and (vi) the irritation score (IS) was finally determined for each sample, according to the following formula: IS=5×301−H/300+7×301−L/300+9×301−C/300, where IS = irritation score, H—the time at which the hemorrhage was observed, L—the time at which vascular lysis occurred and C—the time at which intravascular coagulation was established.

[14] = tested on: colorectal carcinoma cells (HCT-116); design: method as in doi:10.31925/farmacia.2023.2.8; settings: HCT-116, Eug between 0.1 and 1 mM; cited from earlier work
[15] = tested on: gingival fibroblasts (HGF); design: method as in PMID 36675971, doi:10.31925/farmacia.2023.2.8; settings: same concentration and time interval as current study; cited from earlier work
keratinocytes (HaCaT) = settings: cited from earlier work
[16] = tested on: tongue squamous carcinoma cells (SCC4); design: method as in PMID 36675971; settings: SCC4, Eug between 0.1 and 1 mM; cited from earlier work
SAOS-2 cells [17] = tested on: SAOS-2 cells; design: method as in PMID 26929741; settings: SAOS-2, 100 μM; cited from earlier work
[18] = SAOS-2, Eug 0.5 and 1 mM, vs control
[19] = Detroit-562, Eug 0.5 and 1 mM, vs control

C=CCc1ccc(O)c(OC)c1 [Eug, 4-alil-2-metoxifenol]
viability at 100 µM ([1]; SAOS-2, Eug 0.1 mM): 92%
viability at 1000 µM ([1]; SAOS-2, Eug 1 mM): 41%
viability at 100 µM ([2]; Detroit-562, Eug 0.1 mM): 89%
viability at 1000 µM ([2]; Detroit-562, Eug 1 mM): 37%
impact on cellular shape and confluence (SAOS-2 cells [3]): significant impact
changes in aspect or confluence of cells (Detroit-562 cells [4]): no significant changes
apoptotic index (AI) (SAOS-2 cells [5]; SAOS-2, Eug 0.5 mM, DAPI): 25%
nucleus area (SAOS-2 cells [5]; [18]): decreased significantly
nucleus circumference (SAOS-2 cells [5]; [18]): decreased significantly
apoptotic index (AI) (Detroit-562 cells [6]; Detroit-562, Eug 0.5 mM, DAPI): 30%
nucleus area (Detroit-562 cells [6]; [19]): decreased significantly
nucleus circumference (Detroit-562 cells [6]; [19]): decreased significantly
expression of anti-apoptotic marker Bcl-2 (mRNA) [7]: decreasing
expression of pro-apoptotic marker Bad (mRNA) [7]: significantly increasing
expression of pro-apoptotic marker Bax (mRNA) [7]: significantly increasing
expression of anti-apoptotic marker Bcl-2 (mRNA) [8]: decreasing
expression of pro-apoptotic marker Bad (mRNA) [8]: significantly increasing
expression of pro-apoptotic marker Bax (mRNA) [8]: significantly increasing
activation of caspase 3/7 [9]: significant increase
activation of caspase 8 [9]: significant increase
activation of caspase 9 [9]: significant increase
activation of caspase 3/7 [10]: significant increase
activation of caspase 8 [10]: significant increase
activation of caspase 9 [10]: significant increase
luminescence signal (phosphatidylserine externalization), preceding the fluorescence increase (SAOS-2 cells [11]): time-dependent increase
luminescence signal (phosphatidylserine externalization), preceding the fluorescence increase (Detroit-562 cells [12]): time-dependent increase
IS (irritation score) [13]: 1.69
tC, time at which intravascular coagulation was established [13]: 263
tH, time at which hemorrhage was established [13]: 300
tL, time at which vascular lysis was established [13]: 278
decrease in cell viability [14]: up to 34%
decrease in cell viability [15]: ≤ 70%
decrease in cell viability (keratinocytes (HaCaT); HaCaT, same concentration and time interval as current study): ≤ 70%
cell viability (in words) [16]: dose-dependent decrease

CCCCCCCCCCCCOS(=O)(=O)[O-].[Na+] [SDS, sodium dodecyl sulfate, reference compound]
IS (irritation score) [13]: 19.87
tC, time at which intravascular coagulation was established [13]: 15
tH, time at which hemorrhage was established [13]: 21
tL, time at which vascular lysis was established [13]: 17

CN(Cc1cnc2nc(N)nc(N)c2n1)c1ccc(C(=O)N[C@@H](CCC(=O)O)C(=O)O)cc1 [methotrexate, reference compound]
cell viability (in words) (keratinocytes (HaCaT); non-tumor cells HaCaT, methotrexate more pronounced): reduced cell viability in a dose-dependent manner
cell viability (SAOS-2 cells [17]): below 20%
